Experimental data from PubChem BioAssay (NCI).
Values joined by “and” are separate entries in the source; they are usually repeats but may differ in a detail not shown here. Identical values can stand only once.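 Protocol summary: plate cells (96-well), add compound at 5 concentrations, incubate 48 h, interpolate endpoints linearly. TGI: total growth inhibition.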

Legend:
Experiment in all cases: NCI tumour cell line growth inhibition, 48 h
EKVX NSCLC = test system: EKVX NSCLC
A498 renal = test system: A498 renal
MALME-3M melanoma = test system: MALME-3M melanoma
SK-MEL-28 melanoma = test system: SK-MEL-28 melanoma
OVCAR-5 ovarian = test system: OVCAR-5 ovarian
DLD-1 colon = test system: DLD-1 colon
SNB-75 CNS = test system: SNB-75 CNS
NCI-H522 lung = test system: NCI-H522 lung
OVCAR-4 ovarian = test system: OVCAR-4 ovarian
SW-620 colon = test system: SW-620 colon
MCF7 breast = test system: MCF7 breast
SF-268 CNS = test system: SF-268 CNS
NCI-H226 lung = test system: NCI-H226 lung
SN12K1 renal = test system: SN12K1 renal
P388 leukemia = test system: P388 leukemia
U251 CNS = test system: U251 CNS
HCC-2998 colon = test system: HCC-2998 colon
UO-31 renal = test system: UO-31 renal
SN12C renal = test system: SN12C renal
P388/ADR leukemia = test system: P388/ADR leukemia
RXF 393 renal = test system: RXF 393 renal
SF-295 CNS = test system: SF-295 CNS
OVCAR-8 ovarian = test system: OVCAR-8 ovarian
SK-MEL-5 melanoma = test system: SK-MEL-5 melanoma
IGROV1 ovarian = test system: IGROV1 ovarian
DMS 273 small cell lung = test system: DMS 273 small cell lung
SK-OV-3 ovarian = test system: SK-OV-3 ovarian
K-562 leukemia = test system: K-562 leukemia
NCI-H460 lung = test system: NCI-H460 lung
HOP-92 NSCLC = test system: HOP-92 NSCLC
KM20L2 colon = test system: KM20L2 colon
SK-MEL-2 melanoma = test system: SK-MEL-2 melanoma
COLO 205 colon = test system: COLO 205 colon
HOP-62 NSCLC = test system: HOP-62 NSCLC
CCRF-CEM leukemia = test system: CCRF-CEM leukemia
HCT-116 colon = test system: HCT-116 colon
HT29 colon = test system: HT29 colon
A549 NSCLC = test system: A549 NSCLC
HCT-15 colon = test system: HCT-15 colon
LOX IMVI melanoma = test system: LOX IMVI melanoma
SF-539 CNS = test system: SF-539 CNS
RPMI-8226 leukemia = test system: RPMI-8226 leukemia
UACC-257 melanoma = test system: UACC-257 melanoma
HL-60(TB) leukemia = test system: HL-60(TB) leukemia
OVCAR-3 ovarian = test system: OVCAR-3 ovarian
HOP-18 NSCLC = test system: HOP-18 NSCLC
SNB-19 CNS = test system: SNB-19 CNS
CAKI-1 renal = test system: CAKI-1 renal
SNB-78 CNS = test system: SNB-78 CNS
XF 498 CNS = test system: XF 498 CNS
UACC-62 melanoma = test system: UACC-62 melanoma
NCI/ADR-RES ovarian = test system: NCI/ADR-RES ovarian
M19-MEL melanoma = test system: M19-MEL melanoma
KM12 colon = test system: KM12 colon
NCI-H23 lung = test system: NCI-H23 lung
MOLT-4 leukemia = test system: MOLT-4 leukemia
PC-3 prostate = test system: PC-3 prostate
ACHN renal = test system: ACHN renal
DMS 114 small cell lung = test system: DMS 114 small cell lung
786-0 renal = test system: 786-0 renal
MDA-MB-435 = test system: MDA-MB-435
MDA-MB-231 breast = test system: MDA-MB-231 breast
LXFL 529 NSCLC = test system: LXFL 529 NSCLC
T-47D breast = test system: T-47D breast
HS 578T breast = test system: HS 578T breast
RXF-631 renal = test system: RXF-631 renal
DU-145 prostate = test system: DU-145 prostate
SR leukemia = test system: SR leukemia
TK-10 renal = test system: TK-10 renal
BT-549 breast = test system: BT-549 breast
M14 melanoma = test system: M14 melanoma

SMILES: COc1ccc(Cc2nn(C3OC(COC(C)=O)C(OC(C)=O)C(OC(C)=O)C3OC(C)=O)c(=S)n(-c3ccc(OC)cc3)c2=O)cc1 (centres undefined)
- TGI (EKVX NSCLC): > 100 µM
- TGI (A498 renal): > 100 µM
- TGI (MALME-3M melanoma): > 100 µM
- TGI (SK-MEL-28 melanoma): > 100 µM
- TGI (OVCAR-5 ovarian): > 100 µM
- TGI (DLD-1 colon): > 100 µM
- TGI (SNB-75 CNS): > 92.2 µM
- TGI (NCI-H522 lung): > 100 µM
- TGI (OVCAR-4 ovarian): > 100 µM
- TGI (SW-620 colon): > 100 µM
- TGI (MCF7 breast): > 100 µM
- TGI (SF-268 CNS): > 100 µM
- TGI (NCI-H226 lung): > 100 µM
- TGI (SN12K1 renal): > 100 µM
- TGI (P388 leukemia): > 100 µM
- TGI (U251 CNS): > 100 µM
- TGI (HCC-2998 colon): > 100 µM
- TGI (UO-31 renal): > 100 µM
- TGI (SN12C renal): > 100 µM
- TGI (P388/ADR leukemia): > 100 µM
- TGI (RXF 393 renal): > 100 µM
- TGI (SF-295 CNS): > 100 µM
- TGI (OVCAR-8 ovarian): > 100 µM
- TGI (SK-MEL-5 melanoma): > 100 µM
- TGI (IGROV1 ovarian): > 100 µM
- TGI (DMS 273 small cell lung): > 100 µM
- TGI (SK-OV-3 ovarian): > 100 µM
- TGI (K-562 leukemia): > 100 µM
- TGI (NCI-H460 lung): > 100 µM
- TGI (HOP-92 NSCLC): > 100 µM
- TGI (KM20L2 colon): > 100 µM
- TGI (SK-MEL-2 melanoma): > 100 µM
- TGI (COLO 205 colon): > 100 µM
- TGI (HOP-62 NSCLC): > 100 µM
- TGI (CCRF-CEM leukemia): > 100 µM
- TGI (HCT-116 colon): > 100 µM
- TGI (HT29 colon): > 100 µM
- TGI (A549 NSCLC): > 100 µM
- TGI (HCT-15 colon): > 100 µM
- TGI (LOX IMVI melanoma): > 100 µM
- TGI (SF-539 CNS): > 100 µM
- TGI (RPMI-8226 leukemia): > 100 µM
- TGI (UACC-257 melanoma): > 100 µM
- TGI (HL-60(TB) leukemia): > 100 µM
- TGI (OVCAR-3 ovarian): > 100 µM
- TGI (HOP-18 NSCLC): > 100 µM
- TGI (SNB-19 CNS): > 100 µM
- TGI (CAKI-1 renal): > 100 µM
- TGI (SNB-78 CNS): > 100 µM
- TGI (XF 498 CNS): > 100 µM
- TGI (UACC-62 melanoma): > 100 µM
- TGI (NCI/ADR-RES ovarian): > 100 µM
- TGI (M19-MEL melanoma): > 100 µM
- TGI (KM12 colon): > 100 µM
- TGI (NCI-H23 lung): > 100 µM
- TGI (MOLT-4 leukemia): > 100 µM

SMILES: O=S(=O)(O)c1ccc(-c2c3nc(c(-c4ccc(S(=O)(=O)O)cc4)c4ccc([nH]4)c(-c4ccc(S(=O)(=O)O)cc4)c4nc(c(-c5ccc(S(=O)(=O)O)cc5)c5ccc2[nH]5)C=C4)C=C3)cc1
- TGI (PC-3 prostate): > 100 µM
- TGI (EKVX NSCLC): > 100 µM
- TGI (A498 renal): > 100 µM
- TGI (ACHN renal): > 100 µM
- TGI (MALME-3M melanoma): > 100 µM
- TGI (SK-MEL-28 melanoma): > 100 µM and 73.4 µM
- TGI (OVCAR-5 ovarian): > 100 µM
- TGI (DMS 114 small cell lung): > 100 µM
- TGI (DLD-1 colon): > 100 µM
- TGI (786-0 renal): > 100 µM
- TGI (SNB-75 CNS): > 100 µM and 55.1 µM
- TGI (NCI-H522 lung): > 100 µM
- TGI (OVCAR-4 ovarian): > 100 µM
- TGI (MDA-MB-435): > 100 µM
- TGI (SW-620 colon): > 100 µM
- TGI (MDA-MB-231 breast): > 100 µM
- TGI (MCF7 breast): > 100 µM
- TGI (LXFL 529 NSCLC): > 100 µM
- TGI (T-47D breast): > 100 µM
- TGI (SF-268 CNS): > 100 µM
- TGI (NCI-H226 lung): 93.6 µM
- TGI (U251 CNS): > 100 µM
- TGI (HCC-2998 colon): > 100 µM
- TGI (HS 578T breast): > 100 µM
- TGI (UO-31 renal): > 100 µM and 54.8 µM
- TGI (SN12C renal): > 100 µM
- TGI (RXF 393 renal): 96.2 µM and 85.3 µM
- TGI (SF-295 CNS): > 100 µM
- TGI (OVCAR-8 ovarian): > 100 µM
- TGI (RXF-631 renal): > 100 µM
- TGI (SK-MEL-5 melanoma): > 100 µM
- TGI (IGROV1 ovarian): > 100 µM
- TGI (DMS 273 small cell lung): > 100 µM
- TGI (SK-OV-3 ovarian): > 100 µM
- TGI (K-562 leukemia): > 100 µM
- TGI (NCI-H460 lung): > 100 µM
- TGI (HOP-92 NSCLC): > 100 µM and 76.8 µM
- TGI (KM20L2 colon): > 100 µM
- TGI (SK-MEL-2 melanoma): > 100 µM
- TGI (COLO 205 colon): > 100 µM
- TGI (HOP-62 NSCLC): > 100 µM
- TGI (CCRF-CEM leukemia): 79.9 µM and > 100 µM
- TGI (HCT-116 colon): > 100 µM
- TGI (HT29 colon): > 100 µM
- TGI (A549 NSCLC): > 100 µM
- TGI (HCT-15 colon): > 100 µM
- TGI (LOX IMVI melanoma): > 100 µM
- TGI (DU-145 prostate): > 100 µM
- TGI (SR leukemia): > 100 µM
- TGI (TK-10 renal): 73.9 µM and > 100 µM
- TGI (BT-549 breast): 74.5 µM
- TGI (SF-539 CNS): > 100 µM
- TGI (RPMI-8226 leukemia): > 100 µM
- TGI (UACC-257 melanoma): > 100 µM
- TGI (HL-60(TB) leukemia): > 100 µM
- TGI (M14 melanoma): > 100 µM
- TGI (OVCAR-3 ovarian): > 100 µM
- TGI (HOP-18 NSCLC): > 100 µM
- TGI (SNB-19 CNS): > 100 µM
- TGI (CAKI-1 renal): > 100 µM
- TGI (SNB-78 CNS): > 100 µM
- TGI (XF 498 CNS): > 100 µM
- TGI (UACC-62 melanoma): > 100 µM
- TGI (NCI/ADR-RES ovarian): > 100 µM
- TGI (M19-MEL melanoma): > 100 µM
- TGI (KM12 colon): > 100 µM
- TGI (NCI-H23 lung): > 100 µM
- TGI (MOLT-4 leukemia): 12.8 µM and > 100 µM
